# According to patent US20220401329A1, “ARTIFICIAL MELANIN NANOPARTICLES AND PRECURSOR MOLECULES AS HAIR DYES” (Northwestern University, priority 2019, published 2022):
# Marks after values point to notes of the source that are not given here.
# Experiments:
# [1] = tested on: Agaricus bisporus tyrosinase (EC 1.14.18.1); assay: Monomer consumption in tyrosinase-mediated oxidation, by RP-HPLC; type: biochemical; conditions: 84 nM tyrosinase; for monomer consumption (%) after 2 h reaction: 0.5 mg/mL monomer in water
# Experimental: The use of chemoenzymatic oxidative polymerization to produce multifunctional hair coatings has two main advantages. First, it is performed at neutral pH, avoiding the need for basic additives such as NH4OH. Second, it allows the use of substrates other than DA, such as phenolamines and amino acids. Mushroom tyrosinase has recently been used to promote polydopamine-based film deposition^40 and nanoparticles formation^41 starting from dopamine as well as natural phenolamines. […] As previously reported,^40 a 6 h reaction time was necessary to obtain effective darkening of the reaction solutions, performed either in water or Dulbecco's phosphate-buffered saline (DPBS) buffer (FIGS. 23A and 29). Across all tested monomers (L-Tyr, TA, DA), color darkening was associated with an initial increase, then decrease in UV-Vis absorption at 310 nm and 475 nm (FIGS. 23B and 30A-30D). A decrease in these signals, deriving from quinone and cyclic amine species respectively,^40 after the 6 h reaction is indicative of successful polymerization and deposition.^40 We next performed these reactions at 35° C. and at neutral pH, optimal reaction parameters for mushroom tyrosinase.^42 This led to a faster process with solutions turning brown/black several minutes after reaction initiation (FIG. 23A). […] This was confirmed by the rapid disappearance of the peak at 310 nm and 480 nm, as monitored by UV-Vis (FIGS. 23B and 30A-30D). […] (FIGS. 23C and 31A-31B and Table 2). At five-fold higher concentration of 420 nM (50 U/mL) we observed almost complete monomer consumption (FIG. 23D). Monitoring Monomer Consumption via RP-HPLC studies. Monomer consumption after a 2 h reaction was determined by RP-HPLC. Reactions were performed either at rt or at 35° C. and using either 84 nM or […] (five fold) tyrosinase.
# [2] = Solubility of monomers in water; type: physicochemical
monomer consumption (%) after 2 h reaction ([1]; 35° C.),monomer consumption (%) after 2 h reaction ([1]; rt),"substrate for mushroom tyrosinase ([1]; 0.5 mg/mL, 2 hours at 35° C. (FIG. 33A))",solubility [2],Structure (SMILES)
91%,65%,–,–,"NCCc1ccc(O)c(O)c1 [DA, dopamine]"
86%,55%*,–,–,"N[C@@H](Cc1ccc(O)cc1)C(=O)O [L-Tyr, L-tyrosine]"
–,–,good substrate,≥ 26 mM,"COC(=O)[C@@H](N)Cc1ccc(O)cc1 [L-Tyr-OMe, L-tyrosine methyl ester]"
86%,76%,–,–,"NCCc1ccc(O)cc1 [TA, tyramine]"
